Assay results from patent US20080125454A1, “Methods and Compositions for Treatment of Scleritis and Related Disorders” (Wyeth, priority 2006, published 2008).

Target: T1, P-selectin binding to P-selectin glycoprotein ligand-1 (PSGL-1) (Homo sapiens, UniProt P16109)
T1 construct: truncated form of human P-selectin comprised of the lectin and EGF domains (P-LE)
T1 sequence (P16109 42-198): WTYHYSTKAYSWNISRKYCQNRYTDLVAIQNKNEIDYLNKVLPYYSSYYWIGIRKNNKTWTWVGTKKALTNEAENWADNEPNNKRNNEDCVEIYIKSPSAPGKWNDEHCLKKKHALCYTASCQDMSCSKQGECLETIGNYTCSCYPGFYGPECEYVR
Assay: Biacore inhibition of P-selectin binding to PSGL-1 (P-LE binding to immobilized SGP-3)
Conditions: 1 mM; read-out: percent inhibition of binding (positive control)
Method: Compounds of the present teachings can be assayed for selectin inhibitory activity using any of the procedures known in the art. One convenient procedure is the determination of IC50 values for inhibition of P-selectin binding to P-selectin glycoprotein ligand-1 (PSGL-1) using a Biacore instrument.
The Biacore 3000 is an instrument that uses surface plasmon resonance to detect binding of a solution phase analyte to an immobilized ligand on a sensor chip surface. The analyte sample is injected under flow using a microfluidic system. Binding of analyte to ligand causes a change in the angle of refracted light at the surface of the sensor chip, measured by the Biacore instrument in resonance units (RUs).
SGP-3 is a purified sulfoglycopeptide form of human PSGL-1 that contains the P-selectin binding determinants (See Somers et al., 2000, Cell 103, 467-479). […]
The Biacore assay measures the signal in RU produced by binding of P-LE to SGP-3 in the presence and absence of inhibitors. Percent inhibition of binding is calculated by dividing the inhibited signal by the uninhibited signal subtracting this value from one then multiplying by one hundred. […] The data from this titration are plotted, RU values vs. concentration, and the IC50 is determined by extrapolation from the plot. […]

- inhibition at 1000 µM: 50%
Compound: CC1(C)[C@@H](O[C@H]2O[C@H](C(=O)O)[C@@H](O)[C@H](O)[C@H]2O[C@@H]2O[C@H](C(=O)O)[C@@H](O)[C@H](O)[C@H]2O)CC[C@]2(C)[C@H]3C(=O)C=C4[C@@H]5C[C@@](C)(C(=O)O)CC[C@]5(C)CC[C@@]4(C)[C@]3(C)CC[C@@H]12 [Glycyrrhizin]
